The source of these data is article PMC9154192 (PLoS Biology, 2022).

For data set [1], the system named is M. tuberculosis H37Rv. Format: in vivo, BALB/c mice.
A further data set can be described thus: in vitro. The class given is cell-based. The settings on record: human. As to the method: A549 human pulmonary epithelial cells (KCLB 10185), human embryonic kidney (HEK) 293 cells (KCLB 21573), human THP-1 leukemia cells (KCLB 40202), human neuroblastoma SH-SY5Y cells (KCLB 22266), Murine Raw 264.7 macrophages (KCLB 40071), and L929 murine fibroblasts (KCLB 10001) were purchased from the KCLB (Seoul, Korea). Cytotoxicity testing was performed using the MTT assay and the WST-1 cell viability assay as previously described.

Data set [2] has as its system XDR M. tuberculosis. Briefly: Luminescence-based microbial cell viability assay. The arrangement: species or system Mycobacterium tuberculosis.
The test system of data set [3] is XDR M. tuberculosis (KMRC 00203–00197). The class given is cell-based, Mycobacterium tuberculosis. As to conditions: for log reduction (CFU): 7 days.
The test system of data set [4] is M. tuberculosis H37Rv. Briefly: Luminescence-based microbial cell viability assay. The settings on record: for RLU/50ul (replicates1-3), single values / RLU/ml (×100) / RLU/50ul (average): Fig 2C. The arrangement: species or system Mycobacterium tuberculosis.
Data set [5] has as its system M. tuberculosis H37Rv. Format: cell-based, Mycobacterium tuberculosis. The settings on record: H37Rv.
Data set [6] concerns XDR M. tuberculosis. The class given is cell-based, Mycobacterium tuberculosis.

≈ marks a conversion by molar mass, not a printed value. Where “and” joins values, the source holds several entries; their conditions need not be identical. Identical values can stand only once. Like-named read-outs stand apart in the source and are kept apart here.

The CC50 is the concentration at which the toxic effect on the cells reaches its halfway point. Low values mean harm at low concentration, high ones better tolerance by the cells.

As for `NNC(=O)c1ccncc1` [INH, isoniazid, reference compound], the “Efficacy in BALB/C mouse model of pulmonary tuberculosis, Average” value in the data set on M. tuberculosis H37Rv [1] (Fig 4A, group dose 30, 6 mice) came to 4583. In the data set on M. tuberculosis H37Rv [1] (mouse, in vivo), the “reduction of bacterial load in lungs compared to drug-free group” value is “similar”. In the data set on M. tuberculosis H37Rv [1] (mouse, in vivo, po), the “granulomatous lesions in lung sections (HE staining)” value is on record as “limited number of small granulomatous lesions”. Further, the CC50 in the data set “in vitro” (A549), in the data set “in vitro” (HEK-293), in the data set “in vitro” (SH-SY5Y) and in the data set “in vitro” (THP-1) was greater than 500 µg/mL throughout. The “RLU/50ul (replicates1-3), single values” is 190 RLU/50ul and 260 RLU/50ul (2×) and 250 RLU/50ul and 280 RLU/50ul and 160 RLU/50ul (2×) and 150 RLU/50ul and 170 RLU/50ul and 540 RLU/50ul (2×) and 630 RLU/50ul (2×) and 530 RLU/50ul and 620 RLU/50ul and 670 RLU/50ul (2×) and 580 RLU/50ul and 690 RLU/50ul and 830 RLU/50ul (2×) and 790 RLU/50ul and 800 RLU/50ul and 880 RLU/50ul and 870 RLU/50ul and 750 RLU/50ul (2×) with XDR M. tuberculosis [2]; 1310 RLU/50ul and 1170 RLU/50ul and 1890 RLU/50ul and 1990 RLU/50ul and 2130 RLU/50ul and 1740 RLU/50ul and 1790 RLU/50ul and 1620 RLU/50ul and 1290 RLU/50ul in the data set on M. tuberculosis H37Rv [4] (drug conc. 0.19); 340 RLU/50ul and 310 RLU/50ul (2×) and 220 RLU/50ul and 250 RLU/50ul and 320 RLU/50ul (3×) and 360 RLU/50ul in the data set on M. tuberculosis H37Rv [4] (drug conc. 0.39); 120 RLU/50ul (3×) and 100 RLU/50ul and 130 RLU/50ul (2×) and 180 RLU/50ul and 150 RLU/50ul and 140 RLU/50ul in the data set with M. tuberculosis H37Rv [4] (drug conc. 0.78). For the same molecule, the antitubercular effect result in the data set with XDR M. tuberculosis [2] and with XDR M. tuberculosis [6] was “did not show a significant antitubercular effect” each time. Also, the “CFU (replicates1-3), single values” in data set [3] is 6900 CFU and 40600 CFU and 43800 CFU and 52100 CFU and 37500 CFU and 35600 CFU and 31700 CFU and 15100 CFU and 27000 CFU and 106000 CFU and 157000 CFU and 148000 CFU and 98000 CFU and 61800 CFU and 75500 CFU and 71000 CFU and 87000 CFU and 97000 CFU. The “log reduction (CFU)” value in data set [3] (at 12.5 μg/ml) stood at 1.0. Besides, the entries for the “RLU/ml (×100)” value in the data set on M. tuberculosis H37Rv [4] (drug conc. 0.19), with M. tuberculosis H37Rv [4] (drug conc. 0.39) and in the data set on M. tuberculosis H37Rv [4] (drug conc. 0.78) were 331.8 RLU/ml (×100), 61.1 RLU/ml (×100) and 26.4 RLU/ml (×100), respectively. Further, the “RLU/50ul (average)” value in the data set with M. tuberculosis H37Rv [4] (drug conc. 0.19, average of each replicate set) is 2003 RLU/50ul and 1717 RLU/50ul and 1257 RLU/50ul; with M. tuberculosis H37Rv [4] (drug conc. 0.39, average of each replicate set), 263 RLU/50ul and 317 RLU/50ul and 337 RLU/50ul; with M. tuberculosis H37Rv [4] (drug conc. 0.78, average of each replicate set) it was 143 RLU/50ul and 137 RLU/50ul and 117 RLU/50ul. For the same molecule, the “concentration with significant antitubercular effect” value in the data set with M. tuberculosis H37Rv [4] (luminescence-based assay) is 0.78 µg/mL and 0.39 µg/mL. Also, the “CFU/ml (average)” value stood at 2420 CFU/ml with M. tuberculosis H37Rv [5] (Fig 3A, drug conc. 12.5); 203 CFU/ml in the data set on M. tuberculosis H37Rv [5] (Fig 3A, drug conc. 25); 2120 CFU/ml in the data set with M. tuberculosis H37Rv [5] (Fig 3B, drug conc. 12.5); 133 CFU/ml with M. tuberculosis H37Rv [5] (Fig 3B, drug conc. 25). For the same molecule, the “Intracellular M. tuberculosis, % (Drug Free = 100.0)” value in the data set on M. tuberculosis H37Rv [5] (Fig 3A, drug conc. 12.5) amounted to 7.2%; in the data set on M. tuberculosis H37Rv [5] (Fig 3A, drug conc. 25) it was 0.6%; in the data set on M. tuberculosis H37Rv [5] (Fig 3B, drug conc. 12.5), 6.3%; in the data set with M. tuberculosis H37Rv [5] (Fig 3B, drug conc. 25), 0.4%. In addition, the “RFU/200 μl (replicates1-3), single values” in the data set on XDR M. tuberculosis [6] was 29490 RFU/200 μl and 29760 RFU/200 μl and 24060 RFU/200 μl and 22090 RFU/200 μl and 22930 RFU/200 μl and 29240 RFU/200 μl and 29310 RFU/200 μl and 29280 RFU/200 μl and 29510 RFU/200 μl and 51780 RFU/200 μl and 52060 RFU/200 μl and 51260 RFU/200 μl and 49980 RFU/200 μl and 50610 RFU/200 μl and 51510 RFU/200 μl and 51660 RFU/200 μl and 51460 RFU/200 μl and 51820 RFU/200 μl and 56880 RFU/200 μl and 57100 RFU/200 μl and 53750 RFU/200 μl and 53730 RFU/200 μl and 46980 RFU/200 μl and 53520 RFU/200 μl and 53690 RFU/200 μl and 53460 RFU/200 μl and 56940 RFU/200 μl. Further, the “RFU/ml (×104)” value in the data set on XDR M. tuberculosis [6] was 13.6 RFU/ml (×104) and 25.7 RFU/ml (×104) and 27.0 RFU/ml (×104).

For the molecule `COC(=O)[C@@H]1CCC(=O)N1Cc1cc2ccc(OCc3ccccc3)cc2c2cc(OC)c(OC)cc12` [PP3S, Methyl (S)-1-{[3-(Benzyloxy)-6,7-dimethoxy-9-phenanthryl]methyl}-5-oxopyrrolidine-2-carboxylate], the 50% cytotoxic concentration (CC50) was greater than 500 µg/mL in “in vitro” (A549), 7.8 µg/mL (≈ 15.6 µM) in “in vitro” (HEK-293), 7.8 µg/mL (≈ 15.6 µM) in the data set “in vitro” (SH-SY5Y) and greater than 500 µg/mL in “in vitro” (THP-1). The “CFU (log)” value in data set [3] was 4.83 and 4.91. Moreover, the “CFU (replicates1-3), single values” in data set [3] is 41000 CFU and 66100 CFU and 72200 CFU and 71300 CFU and 95100 CFU and 88700 CFU and 98900 CFU and 41200 CFU and 40500 CFU and 105000 CFU and 75800 CFU and 72700 CFU and 52300 CFU and 61000 CFU and 63200 CFU and 62900 CFU and 137000 CFU and 98200 CFU. Also, the “log reduction (CFU)” value is recorded as 0.5 in data set [3] (at 0.8 μg/ml) and 0.6 in data set [3] (at 1.6 μg/ml).

Turning to `CO[C@H]1/C=C/O[C@@]2(C)Oc3c(C)c(O)c4c(O)c(c(/C=N/N5CCN(C)CC5)c(O)c4c3C2=O)NC(=O)/C(C)=C\C=C\[C@H](C)[C@H](O)[C@@H](C)[C@@H](O)[C@@H](C)[C@H](OC(C)=O)[C@@H]1C` [RIF, rifampicin, reference compound], the CC50 in “in vitro” (A549), in “in vitro” (HEK-293), in “in vitro” (SH-SY5Y) and in “in vitro” (THP-1) was greater than 500 µg/mL each time. Besides, the “CFU (log)” value in data set [3] is 4.63 and 4.77. For the same molecule, the “CFU (replicates1-3), single values” in data set [3] is 56400 CFU and 14000 CFU and 26700 CFU and 25200 CFU and 51000 CFU and 59000 CFU and 55000 CFU and 48000 CFU and 53000 CFU and 44900 CFU and 67000 CFU (2×) and 75100 CFU and 66500 CFU and 63000 CFU and 65000 CFU and 35000 CFU and 41000 CFU. The “log reduction (CFU)” value in data set [3] (at 12.5 μg/ml) was found to be 0.6.
